# Data from patent publication US8258259B2, “Macromolecular compounds having controlled stoichiometry” (Starpharma Pty Limited, priority 2005, dated 2012).
# Entries after “also recorded” stand apart in the source; their conditions may differ. Marks after values point to notes of the source that are not given here.
# How the values were obtained:
# [1] = test system: T cell tropic NL4.3 strain of HIV-1; assay: Antiviral efficacy: MT-2 cells infected with HIV-1 NL4.3, cell viability by MTS after 6 days (IC50); type: cell-based; conditions: for EC50: MT-2 cells infected with HIV-1 NL4.3, 6 days, MTS viability; for anti-HIV activity compared with SPL7013: MT-2 cells, HIV-1 NL4.3, comparison with homogenous surface dendrimer SPL7013 (Table 24)
# Experimental: MT-2 cells are infected with the T cell tropic NL4.3 strain of HIV-1 in the presence of 6, 5-fold serial concentrations of compound in triplicate wells of a 96 well plate. In the same plate, cells are exposed to the same drug concentrations in the absence of virus to determine the cytotoxic concentrations of the compound. […] Antimicrob Agents Chemother.
# After 6 days incubation at 37° C. in a CO2 incubator, cell viability of both virus-infected and uninfected cells is determined by incubating cells for 3-4 hours with 3-(4,5-dimethylthiazol-2-yl)-5-(3-carboxymethoxyphenyl)-2-(4-sulfophenyl)-2H-tetrazolium (MTS) according to manufacturer's instructions (CellTiter 96 AQueous One Solution Cell Proliferation assay (Promega, Madison Wis.)).
# [2] = Plasma clearance studies for radiolabelled (tritiated) macromolecules: plasma, urine, faeces and organ tritium after 5 mg/kg intravenous dose; type: in vivo; conditions: rats; for plasma T½: tritiated macromolecule; for % of 3H dose excreted in total urine: urine collected 0-30 hr
# Experimental: Tritiated poly-lysine macromolecules were dissolved in phosphate buffered saline (PBS), pH 7.4) and frozen until required. Rats were intravenously administered 5 mg/kg of macromolecule via an indwelling cannula (implanted in the jugular vein) over 2 min.
# Immediately following dosing, a blood sample (t=0) was collected via an indwelling carotid artery cannula and placed in a heparinised eppendorf tube.
# Blood samples were then collected at predetermined intervals for the following 30 hr, and the plasma separated. In addition, urine and faeces were collected at 0-8 hr, 8-24 hr and 24-30 hr. At sacrifice (30 hr after the intravenous dose) the major organs (liver, kidneys, spleen, pancreas, heart, lung and brain) were collected and weighed. The tritium content of plasma, urine, faeces and the various tissue samples were determined using validated scintillation assays.
# [3] = test system: T cell tropic NL4.3 strain of HIV-1; conditions: positive control of the assay; Dezzutti et al. 2004; cited from earlier work
substance,measurement,setting,value
"BHALys[GlyLys]2[Lys]4[Boc]6[ε,ε-COCH2O-3,6-Naph (SO3Na)2]2 [Example 49]",EC50,[1],2.2 µg/mL
"BHALys[GlyLys]2[Lys]4[COCH2O-3,6-Naph(SO3Na)2]6 [ε,ε-CBz]2 [Example 48]",EC50,[1],0.13 µg/mL
same,anti-HIV activity compared with SPL7013,[1],considerably more active than SPL7013; also recorded: significantly more active than SPL7013
"BHALys[GlyLys]2[Lys]4[α,α-Boc]2[ε,α-COCH2O-3,6-Naph(SO3Na)2]2[ε,ε-COCH2O-3,6-Naph(SO3Na)2]2 [Example 42]",EC50,[1],10.6 µg/mL
"BHALys[GlyLys]2[Lys]4[α,α-COCH2O-3,6-Naph(SO3Na)2]2[α,ε-COCH2O-3,6-Naph(SO3Na)2]2[ε,α-COC5H12]2[ε,ε-COC5H12]2 [Example 43]",EC50,[1],0.24 µg/mL
"BHALys[Lys]2[GlyLys]4[Lys]8[α,α-Boc]4[α,ε-Boc]4[ε,α-COCH2O-3,6-Naph(SO3Na)2]4 [ε,ε-COCH2O-3,6-Naph(SO3Na)2]4 [Example 44]",EC50,[1],0.33 µg/mL
"BHALys[Lys]2[GlyLys]4[Lys]8[α,α-COCH2O-3,6-Naph(SO3Na)2]4[α,εCOCH2O-3,6-Naph(SO3Na)2]4[ε,α-COC5H12]4[ε,ε-COC5H12]4 [Example 45]",EC50,[1],0.37 µg/mL
"BHALys[Lys]2[α,ε-Lys][CBz]2[Lys]3 [COCH2O-3,6-Naph(SO3Na)2]6 [Example 46]",EC50,[1],0.14 µg/mL
same,anti-HIV activity compared with SPL7013,[1],considerably more active than SPL7013; also recorded: significantly more active than SPL7013
"BHALys[Lys]2[α,ε-Lys][COCH2O-3,6-Naph(SO3Na)2]2[Lys]3 [Boc]6 [Example 47]",EC50,[1],>50 µg/mL
BHALys[Lys]4[Su(NPN)2]8[γ-CO-MTX-α-OtBu]8[COPEG24]8 [Example 60],plasma T½,[2],3.9 ± 0.1^a h
BHALys[Lys]4[α-CO-4-PhSO3Na]4[ε-COC5H12]4 [Example 31],EC50,[1],344 µg/mL
"BHALys[Lys]4[α-COC5H12]4[ε-COCH2O-3,6-Naph(SO3Na)2]4 [Example 30]",EC50,[1],58.3 µg/mL
"BHALys[Lys]4[α-COCH2O-3,6-Naph(SO3Na)2]4[ε-COC5H12]4 [Example 29]",EC50,[1],23.8 µg/mL
BHALys[Lys]8[PEG2KD]16 [Example 54],plasma T½,[2],23.90 ± 2.56 h
same,% of 3H dose excreted in total urine,[2],26.0 ± 4.6%
BHALys[Lys]8[PEG200]16 [Example 51],plasma T½,[2],0.25 ± 0.04 h
same,% of 3H dose excreted in total urine,[2],82.2 ± 6.4%
BHALys[Lys]8[Su(NPN)2]16 [γ-CO-MTX-α-OtBu]16 [COPEG12]16 [Example 58],plasma T½,[2],9.0 ± 0.2^a h
BHALys[Lys]8[Su(NPN)2]16 [γ-CO-MTX-α-OtBu]16 [COPEG24]16 [Example 61],plasma T½,[2],21.0 ± 1.7 h
BHALys[Lys]8[Su(NPN)2]16 [γ-CO-MTX-α-OtBu]16 [COPEG2300]16 [Example 63],plasma T½,[2],34.1 ± 1.1 h
"BHALys[Lys]8[α-CO2PEG3]8[ε-CO-3,5-Ph(SO3Na)2]8 [Example 34]",EC50,[1],84.5 µg/mL
BHALys[Lys]8[α-CO2PEG3]8[ε-CO-4-PhSO3Na]8 [Example 35],EC50,[1],>500 µg/mL
"BHALys[Lys]8[α-CO-3,5-Ph(SO3Na)2]8[ε-CBz]8 [Example 37]",EC50,[1],2 µg/mL
BHALys[Lys]8[α-CO-4-Ph(SO3Na)]8[ε-CBz]8 [Example 38],EC50,[1],2.2 µg/mL
"BHALys[Lys]8[α-COCH2O-3,6-Naph(SO3Na)2]8[ε-CBz]8 [Example 36]",EC50,[1],3.2 µg/mL
BHALys[Lys]16 [PEG2KD]32 [Example 55],plasma T½,[2],75.35 ± 9.3 h
same,% of 3H dose excreted in total urine,[2],3.1 ± 1.9%
BHALys[Lys]16 [PEG200]32 [Example 52],plasma T½,[2],0.72 ± 0.03 h
same,% of 3H dose excreted in total urine,[2],80.4 ± 13.6%
BHALys[Lys]16 [PEG570]32 [Example 53],plasma T½,[2],9.45 ± 0.42 h
same,% of 3H dose excreted in total urine,[2],42.9 ± 2.7%
BHALys[Lys]16 [Su(NPN)2]32 [γ-CO-MTX-α-OtBu]32 [COPEG12]32 [Example 59],plasma T½,[2],23.7 ± 5.0 h
BHALys[Lys]16 [Su(NPN)2]32 [γ-CO-MTX-α-OtBu]32 [COPEG24]32 [Example 62],plasma T½,[2],51.4 ± 2.7 h
"BHALys[Lys]16 [α-CO-3,5-Ph(SO3Na)2]16[ε-CBz]16 [Example 40]",EC50,[1],3.2 µg/mL
BHALys[Lys]16 [α-CO-4-Ph(SO3Na)]16 [ε-CBz]16 [Example 41],EC50,[1],4.2 µg/mL
"BHALys[Lys]16 [α-COCH2O-3,6-Naph(SO3Na)2]16 [ε-CBz]16 [Example 39]",EC50,[1],2.4 µg/mL
"BHALys[Lys]16[COCH2O-3,6-Naph(SO3Na)2]32 [SPL7013, reference compound]",EC50,[1],1.5 µg/mL
same,HIV replication,[3],inhibits HIV replication
"DAH [Lys]8[α-CO-3,5-Ph(SO3Na)2]8[ε-COC5H12]8 [Example 32]",EC50,[1],5.8 µg/mL
"DAH [Lys]8[α-COCH2O-3,6-Naph(SO3Na)2]8[ε-COC5H12]8 [Example 33]",EC50,[1],0.71 µg/mL
